Reference: patent publication US20220281848A1, “PYRAZOLE-SUBSTITUTED PYRROLIDINONES AS HERBICIDES” (FMC Corporation, priority 2019, published 2022)

Test system: plants
Assay: Test D pre-emergence, other plants of Tables D1 and D3
Type: in vivo
Details: preemergent, 20 DAA
Description: A formulation containing 50 g/L of the test chemical was prepared by dissolving the active ingredient in a mixture of organic solvents and emulsifier, details of which are provided in the table. This formulation was then mixed with a small, variable amount of acetone to aid dissolution, before addition of a 0.2% v/v aqueous solution of an adjuvant, as the aqueous diluent, to form an aqueous spray solution which contains a predetermined concentration of the active ingredient.
This aqueous spray solution was then sprayed onto plants including maize and wheat that had been seed treated with a herbicide safener, after one day's cultivation (for pre-emergence) or after about 12 days' cultivation (for post-emergence). The plants were grown from seeds sown in standard soil, placed in a glasshouse under controlled conditions (at 24/18° C. or 20/16° C., day/night; 16 h light; 65% humidity). After spray application the plants were then grown in a glasshouse under the same conditions and watered twice daily. After 15 d for post-emergence and 20 DAA for pre-emergence the test was evaluated (100=total damage to plant; 0=no damage to plant).

CN1CC(c2cc(C(F)(F)F)n(C)n2)C(C(=O)Nc2cccc(F)c2F)C1=O (racemic) [Compound 3]
damage to plant (100=total damage to plant; 0=no damage to plant), ABUTH (rate 15): 0
damage to plant (100=total damage to plant; 0=no damage to plant), ABUTH (rate 30): 0
damage to plant (100=total damage to plant; 0=no damage to plant), ABUTH (rate 60): 0
damage to plant (100=total damage to plant; 0=no damage to plant), ABUTH (rate 130): 0
damage to plant (100=total damage to plant; 0=no damage to plant), ABUTH (rate 250): 0
damage to plant (100=total damage to plant; 0=no damage to plant), ABUTH (rate 500): 0
damage to plant (100=total damage to plant; 0=no damage to plant), BIDPI (rate 15): 0
damage to plant (100=total damage to plant; 0=no damage to plant), BIDPI (rate 30): 0
damage to plant (100=total damage to plant; 0=no damage to plant), BIDPI (rate 60): 0
damage to plant (100=total damage to plant; 0=no damage to plant), BIDPI (rate 130): 0
damage to plant (100=total damage to plant; 0=no damage to plant), BIDPI (rate 250): 0
damage to plant (100=total damage to plant; 0=no damage to plant), BIDPI (rate 500): 0
damage to plant (100=total damage to plant; 0=no damage to plant), BRAPL (rate 15): 20
damage to plant (100=total damage to plant; 0=no damage to plant), BRAPL (rate 30): 50
damage to plant (100=total damage to plant; 0=no damage to plant), BRAPL (rate 60): 90
damage to plant (100=total damage to plant; 0=no damage to plant), BRAPL (rate 130): 100
damage to plant (100=total damage to plant; 0=no damage to plant), BRAPL (rate 250): 100
damage to plant (100=total damage to plant; 0=no damage to plant), BRAPL (rate 500): 100
damage to plant (100=total damage to plant; 0=no damage to plant), CYPES (rate 15): 0
damage to plant (100=total damage to plant; 0=no damage to plant), CYPES (rate 30): 0
damage to plant (100=total damage to plant; 0=no damage to plant), CYPES (rate 60): 0
damage to plant (100=total damage to plant; 0=no damage to plant), CYPES (rate 130): 0
damage to plant (100=total damage to plant; 0=no damage to plant), CYPES (rate 250): 0
damage to plant (100=total damage to plant; 0=no damage to plant), CYPES (rate 500): 10
damage to plant (100=total damage to plant; 0=no damage to plant), DIGSA (rate 15): 20
damage to plant (100=total damage to plant; 0=no damage to plant), DIGSA (rate 30): 90
damage to plant (100=total damage to plant; 0=no damage to plant), DIGSA (rate 60): 90
damage to plant (100=total damage to plant; 0=no damage to plant), DIGSA (rate 130): 100
damage to plant (100=total damage to plant; 0=no damage to plant), DIGSA (rate 250): 100
damage to plant (100=total damage to plant; 0=no damage to plant), DIGSA (rate 500): 100
damage to plant (100=total damage to plant; 0=no damage to plant), ECHCG (rate 15): 20
damage to plant (100=total damage to plant; 0=no damage to plant), ECHCG (rate 30): 90
damage to plant (100=total damage to plant; 0=no damage to plant), ECHCG (rate 60): 90
damage to plant (100=total damage to plant; 0=no damage to plant), ECHCG (rate 130): 90
damage to plant (100=total damage to plant; 0=no damage to plant), ECHCG (rate 250): 100
damage to plant (100=total damage to plant; 0=no damage to plant), ECHCG (rate 500): 100
damage to plant (100=total damage to plant; 0=no damage to plant), ELEIN (rate 15): 0
damage to plant (100=total damage to plant; 0=no damage to plant), ELEIN (rate 30): 0
damage to plant (100=total damage to plant; 0=no damage to plant), ELEIN (rate 60): 0
damage to plant (100=total damage to plant; 0=no damage to plant), ELEIN (rate 130): 0
damage to plant (100=total damage to plant; 0=no damage to plant), ELEIN (rate 250): 0
damage to plant (100=total damage to plant; 0=no damage to plant), ELEIN (rate 500): 0
damage to plant (100=total damage to plant; 0=no damage to plant), EPHHL (rate 15): 0
damage to plant (100=total damage to plant; 0=no damage to plant), EPHHL (rate 30): 0
damage to plant (100=total damage to plant; 0=no damage to plant), EPHHL (rate 60): 0
damage to plant (100=total damage to plant; 0=no damage to plant), EPHHL (rate 130): 0
damage to plant (100=total damage to plant; 0=no damage to plant), EPHHL (rate 250): 10
damage to plant (100=total damage to plant; 0=no damage to plant), EPHHL (rate 500): 10
damage to plant (100=total damage to plant; 0=no damage to plant), GLXMA (rate 15): 0
damage to plant (100=total damage to plant; 0=no damage to plant), GLXMA (rate 30): 0
damage to plant (100=total damage to plant; 0=no damage to plant), GLXMA (rate 60): 0
damage to plant (100=total damage to plant; 0=no damage to plant), GLXMA (rate 130): 0
damage to plant (100=total damage to plant; 0=no damage to plant), GLXMA (rate 250): 0
damage to plant (100=total damage to plant; 0=no damage to plant), GLXMA (rate 500): 10
damage to plant (100=total damage to plant; 0=no damage to plant), IPOHE (rate 15): 0
damage to plant (100=total damage to plant; 0=no damage to plant), IPOHE (rate 30): 0
damage to plant (100=total damage to plant; 0=no damage to plant), IPOHE (rate 60): 0
damage to plant (100=total damage to plant; 0=no damage to plant), IPOHE (rate 130): 0
damage to plant (100=total damage to plant; 0=no damage to plant), IPOHE (rate 250): 0
damage to plant (100=total damage to plant; 0=no damage to plant), IPOHE (rate 500): 0
damage to plant (100=total damage to plant; 0=no damage to plant), ORYSA (rate 15): 0
damage to plant (100=total damage to plant; 0=no damage to plant), ORYSA (rate 30): 0
damage to plant (100=total damage to plant; 0=no damage to plant), ORYSA (rate 60): 0
damage to plant (100=total damage to plant; 0=no damage to plant), ORYSA (rate 130): 0
damage to plant (100=total damage to plant; 0=no damage to plant), ORYSA (rate 250): 0
damage to plant (100=total damage to plant; 0=no damage to plant), ORYSA (rate 500): 0
damage to plant (100=total damage to plant; 0=no damage to plant), PANMI (rate 15): 0
damage to plant (100=total damage to plant; 0=no damage to plant), PANMI (rate 30): 0
damage to plant (100=total damage to plant; 0=no damage to plant), PANMI (rate 60): 0
damage to plant (100=total damage to plant; 0=no damage to plant), PANMI (rate 130): 0
damage to plant (100=total damage to plant; 0=no damage to plant), PANMI (rate 250): 0
damage to plant (100=total damage to plant; 0=no damage to plant), PANMI (rate 500): 0
damage to plant (100=total damage to plant; 0=no damage to plant), SETFA (rate 15): 0
damage to plant (100=total damage to plant; 0=no damage to plant), SETFA (rate 30): 30
damage to plant (100=total damage to plant; 0=no damage to plant), SETFA (rate 60): 80
damage to plant (100=total damage to plant; 0=no damage to plant), SETFA (rate 130): 90
damage to plant (100=total damage to plant; 0=no damage to plant), SETFA (rate 250): 90
damage to plant (100=total damage to plant; 0=no damage to plant), SETFA (rate 500): 90
damage to plant (100=total damage to plant; 0=no damage to plant), SIDSP (rate 15): 0
damage to plant (100=total damage to plant; 0=no damage to plant), SIDSP (rate 30): 0
damage to plant (100=total damage to plant; 0=no damage to plant), SIDSP (rate 130): 0
damage to plant (100=total damage to plant; 0=no damage to plant), SIDSP (rate 250): 60
damage to plant (100=total damage to plant; 0=no damage to plant), SIDSP (rate 500): 60
damage to plant (100=total damage to plant; 0=no damage to plant), SORVU (rate 15): 0
damage to plant (100=total damage to plant; 0=no damage to plant), SORVU (rate 30): 0
damage to plant (100=total damage to plant; 0=no damage to plant), SORVU (rate 60): 0
damage to plant (100=total damage to plant; 0=no damage to plant), SORVU (rate 130): 0
damage to plant (100=total damage to plant; 0=no damage to plant), SORVU (rate 250): 0
damage to plant (100=total damage to plant; 0=no damage to plant), SORVU (rate 500): 0
